Results as given in patent publication US9513280B2, “Microfluidic biological barrier model and associated method” (The University of Utah Research Foundation, priority 2012, dated 2016).
Where two headings read alike, the source gives them in different places.

System: co-cultured μBBB models (bEnd.3 endothelial cells and C8-D1A astrocytes)
Details: for period of transient TEER drop: co-cultured μBBB on day 4
Protocol: To evaluate the fabricated μBBB system, three methods were employed: (1) Cell imaging to observe structure and morphology, (2) TEER levels to evaluate cell confluence and tight junction integrity, and (3) permeability assays to evaluate barrier selectivity. Cells were imaged with a Live/Dead assay to verify cell viability, and immunostained to look at expression of astrocyte marker GFAP and tight junction component […] (ZO-1). TEER was measured as an indicator of cell confluence and tight junction integrity, with time to maximum TEER being indicative of BBB development time. Fluxes of fluorescent-labeled tracer molecules were measured to assess permeability to larger solutes. […] Permeability was measured in μBBB models exposed to DMEM:F12 media with elevated pH (>10) for 4 h.
Over the course of the μBBB model evaluation experiments, TEER was measured twice a day to monitor cell confluence and development of tight junctions. For measurement of TEER, voltage and current electrode wires were connected via an electrode adaptor (WPI) to an EVOM2 epithelial voltohmmeter (WPI). The EVOM2 passes a constant 10 μA AC current at 12.5 Hz while measuring resistance. To calculate TEER, initial D0 Background resistances Rb were subtracted from total resistance RC at each time point and normalized for area, giving TEER values in Ωcm^2 as in the following equation: TEER=(RC−Rb)A
TEER of transwell cultures were measured daily by placing them in an Endohm chamber (WPI) and connecting it to the EVOM2.

## NCCc1c[nH]cn1 [histamine]
100 μM histamine
  time for TEER to return to initial levels: within six minutes
  period of transient TEER drop: 5 to 7 min
150 μM histamine
  time for TEER to return to initial levels: ≤ 15 min
  period of transient TEER drop: 8 to 15 min
